Source: PMC7910904, “Improving the Antioxidant Properties of Calophyllum inophyllum Seed Oil from French Polynesia: Development and Biological Applications of Resinous Ethanol-Soluble Extracts” (Antioxidants, 2021)
Values after ≈ are worked out from the molar mass of the structure shown.

Legend:
[1] = Metal chelating capacity (ferrozine); conditions: EDTA equivalents per gram of extract
[2] = target: T1, Lipoxygenase (15-LOX, soybean) (Glycine max, UniProt P08170); experiment: Lipoxygenase inhibitory activity (Cayman kit); assay type: biochemical; conditions: compounds at 100 µg/mL
T1 sequence (P08170 1-839): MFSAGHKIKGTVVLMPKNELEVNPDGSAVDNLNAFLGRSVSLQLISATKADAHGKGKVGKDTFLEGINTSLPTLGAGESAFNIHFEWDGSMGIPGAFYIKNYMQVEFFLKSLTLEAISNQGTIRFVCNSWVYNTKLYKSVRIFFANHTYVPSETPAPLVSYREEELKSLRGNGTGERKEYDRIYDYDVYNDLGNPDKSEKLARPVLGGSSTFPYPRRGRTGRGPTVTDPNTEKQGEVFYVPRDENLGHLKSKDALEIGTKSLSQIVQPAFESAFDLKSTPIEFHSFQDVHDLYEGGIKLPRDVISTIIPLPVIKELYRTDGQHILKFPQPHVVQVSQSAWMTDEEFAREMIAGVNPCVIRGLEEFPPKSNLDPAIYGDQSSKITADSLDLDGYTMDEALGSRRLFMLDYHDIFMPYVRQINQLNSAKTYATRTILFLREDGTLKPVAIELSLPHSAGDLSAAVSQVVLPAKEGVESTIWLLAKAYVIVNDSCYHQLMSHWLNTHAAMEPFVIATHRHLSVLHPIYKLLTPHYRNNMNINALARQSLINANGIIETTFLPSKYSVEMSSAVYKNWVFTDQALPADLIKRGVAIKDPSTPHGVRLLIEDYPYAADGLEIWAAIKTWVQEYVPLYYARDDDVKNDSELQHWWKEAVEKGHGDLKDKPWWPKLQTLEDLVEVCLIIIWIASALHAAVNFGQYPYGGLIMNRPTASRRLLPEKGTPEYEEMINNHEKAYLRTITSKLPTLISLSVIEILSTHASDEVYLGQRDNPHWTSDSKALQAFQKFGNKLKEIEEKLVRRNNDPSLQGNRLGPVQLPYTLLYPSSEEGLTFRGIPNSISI
Method: Lipoxygenase (15-LOX, soybean) inhibitory activity was evaluated using a commercial assay kit (Cayman Chemicals Co; Item No. 760700) according to the manufacturer’s instructions. Solutions of test samples (10 μL) in methanol were added into 96-wells plates together with assay buffer, and the enzyme was added. The reaction was initiated by adding 10 μL of arachidonic acid to the wells and the plate was placed on a shaker for 15 min. Chromogen solution (100 μL) was added to the wells, the plate was then placed on a shaker for 10 min and absorbance was read at 495–500 nm. […] Results are expressed as a percentage relative to the activity without the test compound.

[3] = target: T2, xanthine oxidase (XO; from buttermilk) (Bos taurus, UniProt P80457); experiment: biochemical; conditions: 30 min, 37 °C; read-out: XO Inhibition IC50 (converted)
T2 construct: purchased Sigma-Aldrich; host or cells: buttermilk (natural source)
T2 sequence (P80457 whole entry): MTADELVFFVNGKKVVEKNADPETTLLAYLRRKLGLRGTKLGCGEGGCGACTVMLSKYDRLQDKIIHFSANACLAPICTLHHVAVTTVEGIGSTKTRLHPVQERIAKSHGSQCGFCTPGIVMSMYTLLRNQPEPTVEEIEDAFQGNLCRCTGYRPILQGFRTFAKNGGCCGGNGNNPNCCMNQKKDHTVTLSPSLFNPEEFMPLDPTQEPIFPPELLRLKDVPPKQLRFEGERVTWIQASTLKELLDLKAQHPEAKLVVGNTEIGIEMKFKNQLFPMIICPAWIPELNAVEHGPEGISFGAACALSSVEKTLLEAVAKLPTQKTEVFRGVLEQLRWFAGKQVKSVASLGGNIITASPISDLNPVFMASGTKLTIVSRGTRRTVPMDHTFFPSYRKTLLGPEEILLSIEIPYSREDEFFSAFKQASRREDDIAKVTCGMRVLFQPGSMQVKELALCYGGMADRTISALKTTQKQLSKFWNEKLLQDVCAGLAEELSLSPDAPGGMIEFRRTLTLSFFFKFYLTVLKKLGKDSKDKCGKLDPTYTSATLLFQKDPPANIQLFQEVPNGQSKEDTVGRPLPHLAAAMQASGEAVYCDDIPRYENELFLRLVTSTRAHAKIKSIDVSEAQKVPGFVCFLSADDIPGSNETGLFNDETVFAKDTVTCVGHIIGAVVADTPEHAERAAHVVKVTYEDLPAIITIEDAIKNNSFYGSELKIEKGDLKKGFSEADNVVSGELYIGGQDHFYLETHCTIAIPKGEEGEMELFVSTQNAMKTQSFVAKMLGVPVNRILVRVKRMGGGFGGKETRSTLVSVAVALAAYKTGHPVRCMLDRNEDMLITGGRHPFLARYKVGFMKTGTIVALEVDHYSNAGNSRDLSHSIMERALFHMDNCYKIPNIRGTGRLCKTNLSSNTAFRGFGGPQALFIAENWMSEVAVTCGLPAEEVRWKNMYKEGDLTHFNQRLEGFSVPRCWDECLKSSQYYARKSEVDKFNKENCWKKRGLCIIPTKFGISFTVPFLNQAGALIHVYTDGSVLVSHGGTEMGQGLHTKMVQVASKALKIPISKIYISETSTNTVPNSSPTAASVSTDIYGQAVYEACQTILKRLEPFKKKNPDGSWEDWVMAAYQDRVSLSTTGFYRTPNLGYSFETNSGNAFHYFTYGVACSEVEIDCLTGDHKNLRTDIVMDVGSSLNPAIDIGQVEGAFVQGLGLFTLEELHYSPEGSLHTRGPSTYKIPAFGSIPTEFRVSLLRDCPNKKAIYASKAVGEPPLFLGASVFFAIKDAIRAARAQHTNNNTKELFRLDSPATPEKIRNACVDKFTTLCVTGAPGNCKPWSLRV
Method: All reactants were dissolved in PBS (0.2 M, pH 7.5). The experiments were performed at 37 °C in 96-wells microplates with a final volume of 250 µL/well [30]. […] To all wells, 25 µL of EDTA (0.1 mM in PBS) and 25 µL of xanthine solution (500 µM) were then added, and the reaction was started by adding 50 µL of XO suspension (23.32 mU/mL), while PBS (50 µL) was added in blank samples. The final concentrations were: xanthine, 50 µM; EDTA, 10 µM and XO, 4.7 mU/mL. The wells were incubated for 30 min at 37 °C, and uric acid production was determined by subtracting the absorbance at 290–295 nm of the sample against that of the blank. Each measurement was performed in triplicate.

[4] = Superoxide radical quenching (allopurinol-XO generator, lucigenin luminescence); conditions: glycine buffer/acetone
Method: All reactants were dissolved in glycine buffer, and the reaction was carried out at 25 °C [30]. […] The test tube was inserted in the luminometer, and reaction was initiated by adding a XO suspension (2 µL, 11 mU/mL). Luminescence was monitored for a total period of 7 min and O2^•− quenching was calculated by subtracting areas under the curve against blank. Each measurement was performed in triplicate.

[5] = Total peroxyl radical-trapping potential (TRAP) assay; conditions: for TRAP TE: metabolites and standards: activity of a 1 µM-solution relative to 1 µM Trolox
Method: The experimental protocol of the TRAP assay was previously reported. Briefly, AAPH (150 mM) was dissolved in 10 mL of Tris HCl buffer solution (100 mM, pH 7.4), and the solution was kept at 37 °C for 30 min to initiate thermal radical formation. A luminol stock solution (1 mM) was prepared in 50 mL Tris HCl buffer and kept in darkness at 4 °C. A 78 µM, working luminol solution was prepared before each assay by dilution in Tris HCl buffer. Samples for assays were prepared as follows: 2 mL of AAPH (final concentration, 100 mM) and 500 μL of luminol solution (final concentration, 13 µM) were introduced in a 3 mL tube; then, 500 μL of pure acetone (blank) or solution of the tested oil or extract in acetone (0.005–0.2 mg/mL) or DMSO (test compounds: 5–300 µM) were added and the mixture vortexed for 5 s before luminescence analysis. A calibration curve was obtained in the same conditions using the antioxidant Trolox (1–40 μM) as a standard.
Quantification of radical scavenging capacity was performed by integrating the area under the curve (AUC) for the sample and blank solutions, and the results are expressed as Trolox Equivalents (TE) using Equation (2):TE = ([Trolox] × ΔAUC Sample)/([Sample] × ΔAUC Trolox)(2) where ΔAUC Sample (Trolox) = AUC Blank − AUC Sample (Trolox).

DPPH assay = conditions: for IC50: metabolites and standards, in dichloromethane
Method: Experiments were performed according to previous procedures. Aliquots of dichloromethane solutions of oil or fractions (50–500 mg/mL) or test compounds (final concentration 0.01–2 mM) were added to 200 µL of a freshly prepared DPPH solution (75 mg/L), and the final volume was adjusted to 300 µL with dichloromethane to obtain a final DPPH concentration of 0.13 mM. The absorbance was read at 517 nm on a microplate reader 3 min after sample addition. Experiments were performed in triplicate and averaged. The DPPH inhibition was calculated as follows:Inhibition (%) = [100 × (A0 − A)/A0](1)

proteinase K (PTA) = target: T3, proteinase K (PTA) (Parengyodontium album, UniProt P06873); experiment: Proteinase inhibitory activity; assay type: biochemical; conditions: compounds at 150 µg/mL
T3 construct: purchased Sigma-Aldrich
T3 sequence (P06873 106-384): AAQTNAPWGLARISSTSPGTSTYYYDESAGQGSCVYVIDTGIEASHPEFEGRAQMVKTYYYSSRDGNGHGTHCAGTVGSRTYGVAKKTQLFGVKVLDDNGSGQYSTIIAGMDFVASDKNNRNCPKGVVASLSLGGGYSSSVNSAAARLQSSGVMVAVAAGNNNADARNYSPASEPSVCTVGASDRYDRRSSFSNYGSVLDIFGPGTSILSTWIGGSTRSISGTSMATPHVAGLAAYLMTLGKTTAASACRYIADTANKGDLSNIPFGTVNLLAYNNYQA
Method: Anti-inflammatory properties of the extracts were evaluated by their proteinase and lipoxygenase inhibitory activities as described. Briefly, PTA (0.06 mg) was dissolved in 2 mL of Tris HCl buffer (20 mM, pH 7.4) containing a suspension of each extract (100–600 µg/mL). The mixture was incubated at 37 °C for 5 min, and 1 mL of 4% BSA was added. Incubation was prolonged for 20 min, and afterwards 2 mL of 5% trichloroacetic acid was added to the mixture. After centrifugation (3000 rpm, 10 min, 4 °C) the absorbance was read at 210 nm against buffer as blank, and the percentage of proteinase inhibition activity was calculated. Experiments were performed in triplicate and averaged. The anti-inflammatory drug diclofenac (100–300 µg/mL) was used as a standard for comparison.

M. tuberculosis H37 RV = experiment: Anti-mycobacterial Microplate-based Alamar Blue assay (MABA); assay type: cell-based; conditions: Mycobacterium tuberculosis, H37RV
3T3 fibroblasts = experiment: MTT cytotoxicity on 3T3 fibroblasts; assay type: cell-based, murine; conditions: Mus musculus, Fibroblast, 50% viability after 48 h
[6] = tested on: A549 human lung carcinoma cells; experiment: MTT cytotoxicity on A549 cells; assay type: cell-based; conditions: 50% viability after 48 h
[7] = tested on: Staphylococcus aureus (ATCC 6538); experiment: Antimicrobial disk-diffusion agar method; assay type: cell-based; conditions: for Antimicrobial activity against S. aureus, in words: 20 µg per disc; for zone of inhibition at 20 µg/disc: Staphylococcus aureus, ATCC6538, 20 µg/disk, 24 h, read-out: S. aureus Diameter of the zone of inhibition

Compound | MCC [1] | inhibition at 100 µg/mL [2] | IC50 [3] | O2•− Quenching IC50 [4] | TRAP TE [5] | IC50 (DPPH assay) | inhibition at 150 µg/mL (proteinase K (PTA)) | MIC (M. tuberculosis H37 RV) | TRAP activity, in words [5] | DPPH scavenging capacity, in words (DPPH assay) | IC50 (3T3 fibroblasts) | IC50 [6] | Antimicrobial activity against S. aureus, in words [7] | zone of inhibition at 20 µg/disc [7]
O=C(O)c1cc(O)c(O)c(O)c1 [Gallic acid] | 90 ± 3 µmol EDTAE/g | 28 ± 2% | 242 µM | 0.022 ± 0.01 µg/mL |  |  |  |  |  |  |  |  |  | 
O=C(O)/C=C/c1ccc(O)c(O)c1 [Caffeic acid] | 125± 5 µmol EDTAE/g | 45 ± 1% | 219 µM | 0.013 ± 0.06 µg/mL | 2.98 ± 0.14 TE | 18.1 ± 0.21 µM |  |  |  |  |  |  |  | 
O=c1c(O)c(-c2ccc(O)c(O)c2)oc2cc(O)cc(O)c12 [Quercetin] | 105 ± 3 µmol EDTAE/g | 83 ± 2% |  | 0.083 ± 0.06 µg/mL | 6.31 ± 0.24 TE | 14.1 ± 0.21 µM |  |  |  |  |  |  |  | 
O=C(O)Cc1ccccc1Nc1c(Cl)cccc1Cl [Diclofenac] |  |  |  |  |  |  | 64 ± 2% |  |  |  |  |  |  | 
C=C(C)C(CC=C(C)C)CC1(CC=C(C)C)C(=O)C(C(CCC)CC(=O)O)=C(O)C2=C1O[C@H](C)[C@@H](C)C2=O (stereo partly shown) [Inocalophyllin B] |  |  |  |  | 1.07 ± 0.06 TE | 583 ± 17 µM |  | > 15 µg/mL | significant TRAP activity | moderately active | 41 ± 5 µg/mL (≈ 77.8 µM) | 4.2 ± 1.3 µg/mL (≈ 7.97 µM) | active | 20 ± 2 mm
C/C=C(\C)C(=O)c1c(OC)c2c(c3c(-c4ccccc4)cc(=O)oc13)OC(C)(C)C=C2 [Calophyllolide] |  |  |  |  | 0.48 ± 0.08 TE | ~890 µM |  | > 15 µg/mL | weakly active | slightly active | 49 ± 4 µg/mL (≈ 118 µM) | 3.1 ± 0.9 µg/mL (≈ 7.44 µM) | significant activity | 19 ± 3 mm
